The source of these data is patent publication US20240188566A1, “Biocidal Composition and Method” (ARXADA, LLC, priority 2021, published 2024).

Series [1] concerns Pseudomonas aeruginosa, Escherichia coli, Enterobacter cloacae, Acinetobacter calcoaceticus. Briefly: In-can challenge test, modified ASTM D2574-97 (Table 1). Format: cell-based. As to the method:
(§1) Various formulations were made in accordance with the present disclosure and tested for performance. In one challenge test, the efficacy of dicyandiamide as an adjuvant for BIT was evaluated using modified ASTM D2574-97 “Standard Test Method for Resistance of Emulsion Paints in the Container to Attack by Microorganisms” with higher inoculation volumes and frequency. A standard consortium of four (4) bacterial populations: Pseudomonas aeruginosa, Escherichia coli, Enterobacter cloacae, Acinetobacter calcoaceticus was used to inoculate three (3) different samples at ten percent (10%), five percent (5%), or two and a half percent (2.5%) of the sample size. At twenty-four (24) hours and seventy-two (72) hours after each inoculation, a portion of each sample was streaked on tryptic soy agar. A dilution plate count was performed at the last seventy-two (72) hour time point.
(§2) Example data provided in Tables 1, 2 and 3 should be understood as indicating the degree of microbial growth observed for a given data point unless otherwise indicated. In particular, each plate is ranked from 0 through 5c (i.e., one of 0, 1, 2, 3, 4, 5, or 5c) according to the degree of observed microbial growth, where: a “0” ranking indicates no growth; a “1” ranking indicates one (1) through five (5) observed colony forming unit (cfu), i.e., the plate was very lightly contaminated; a “2” ranking indicates six (6) through fifteen (15) cfu, i.e., the plate was lightly contaminated; a “3” ranking indicates sixteen (16) through thirty (30) cfu, i.e., the plate was moderately contaminated; a “4” ranking indicates thirty-one (31) through forty-five (45) cfu, i.e., the plate was heavily contaminated; a “5” ranking indicates greater than (45) cfu, i.e., the plate was severely contaminated; and a “5c” ranking indicates confluent growth, i.e., the plate was very severely contaminated. Thus, for instance, Table 1, Challenge 1 at 24 h for BIT 50 ppm has a value of 5 indicating greater than forty-five (45) cfu were observed. As another example for illustration, Table 1, Challenge 1 at 24 h for dicyandiamide 5,000 ppm+BIT 50 ppm has a value of 1 indicating one (1) through five (5) cfu was observed.

Series [2] has the same test system. Briefly: Repeat in-can challenge test, same conditions (Table 2). Type of series: cell-based. As to the method:
as §1, §2

The subject of series [3] is bacteria, fungi, and yeast. As to conditions: background statement; cited from earlier work.
For series [4] the following is noted: neutral pH; cited from earlier work.
[5] abbreviates: BIT 50 ppm, Challenge 1 (10%), 24 h.
Setting [6] is: BIT 50 ppm, Challenge 1 (10%), 72 h.
[7] abbreviates: BIT 50 ppm, Challenge 2 (5%), 72 h.
[8] abbreviates: BIT 50 ppm, Challenge 3 (2.5%), 24 h.
The mark [9] stands for this setting: BIT 50 ppm, Challenge 3 (2.5%), 72 h.
Where [10] appears, read: BIT 100 ppm, Challenge 1 (10%), 24 h.
Where [11] appears, read: BIT 100 ppm, Challenge 1 (10%), 72 h.
[12] abbreviates: BIT 100 ppm, Challenge 2 (5%), 72 h.
[13] abbreviates: BIT 100 ppm, Challenge 3 (2.5%), 24 h.
Setting [14] is: BIT 100 ppm, Challenge 3 (2.5%), 72 h.

Turning to `O=c1[nH]sc2ccccc12` [BIT, 1,2-benzisothiazolin-3-one], the “degree of microbial growth (plate ranking)” value (from here on “degree of microbial growth”) in series [1] (setting [5]) was 5 (a “5” ranking indicates greater than (45) cfu, i.e., the plate was severely contaminated); in series [1] (setting [6]), 2 (a “2” ranking indicates six (6) through fifteen (15) cfu, i.e., the plate was lightly contaminated); in series [1] (setting [7]), 5 (a “5” ranking indicates greater than (45) cfu, i.e., the plate was severely contaminated); in series [1] (setting [8]), 5c; in series [1] (setting [10]), 5 (a “5” ranking indicates greater than (45) cfu, i.e., the plate was severely contaminated); in series [1] (setting [11]), 0. In addition, the “degree of microbial growth” value in series [1] (setting [12]) was 0; in series [1] (setting [13]), 5 (a “5” ranking indicates greater than (45) cfu, i.e., the plate was severely contaminated); in series [2] (BIT 35 ppm, Challenge 1 (10%), 24 h), 5c; in series [2] (BIT 35 ppm, Challenge 1 (10%), 72 h) it was 5c; in series [2] (BIT 35 ppm, Challenge 2 (5%), 72 h) it was 5c; in series [2] (BIT 35 ppm, Challenge 3 (2.5%), 24 h), 5c. Further, the “degree of microbial growth” value is listed as 5c in series [2] (setting [5]); 5c in series [2] (setting [6]); 5c in series [2] (setting [7]); 5c in series [2] (setting [8]); 5c in series [2] (BIT 65 ppm, Challenge 1 (10%), 24 h); 3 (a “3” ranking indicates sixteen (16) through thirty (30) cfu, i.e., the plate was moderately contaminated) in series [2] (BIT 65 ppm, Challenge 1 (10%), 72 h). The “degree of microbial growth” value is 5c in series [2] (BIT 65 ppm, Challenge 2 (5%), 72 h); 5c in series [2] (BIT 65 ppm, Challenge 3 (2.5%), 24 h); 5c in series [2] (BIT 75 ppm, Challenge 1 (10%), 24 h); 0 in series [2] (BIT 75 ppm, Challenge 1 (10%), 72 h); 5 (a “5” ranking indicates greater than (45) cfu, i.e., the plate was severely contaminated) in series [2] (BIT 75 ppm, Challenge 2 (5%), 72 h); 5c in series [2] (BIT 75 ppm, Challenge 3 (2.5%), 24 h). The “degree of microbial growth” value in series [2] (setting [10]) is on record as 5c; in series [2] (setting [11]), 0; in series [2] (setting [12]), 5 (a “5” ranking indicates greater than (45) cfu, i.e., the plate was severely contaminated); in series [2] (setting [13]), 5c. For the same molecule, the dilution plate count is given as 7.8 × 10^6 in series [1] (setting [9]); 5.0 × 10^1 in series [1] (setting [14]); 3.0 × 10^6 in series [2] (BIT 35 ppm, Challenge 3 (2.5%), 72 h); 6.6 × 10^6 in series [2] (setting [9]); 1.0 × 10^6 in series [2] (BIT 65 ppm, Challenge 3 (2.5%), 72 h); 2.8 × 10^5 in series [2] (BIT 75 ppm, Challenge 3 (2.5%), 72 h). Besides, the dilution plate count in series [2] (setting [14]) is 1.8 × 10^7. The “amount required for a reliable and quick biocidal activity” value in series [3] was at most 500 ppm.
On to Zinc pyrithione [ZPT], for which the solubility in water in series [4] is 8 ppm.
